Reference: PMC11672637, “7-O-Carboxylic Acid-Substituted 3-O-Alkyl Difluoroquercetin; An Aztreonam-Potentiating Agent Against Carbapenemase-Producing Pseudomonas aeruginosa Through Simultaneous Inhibition of Metallo-β-Lactamase and Efflux Pump” (Antibiotics, 2024)
Where two headings read alike, the source gives them in different places.

Experiments:
Experiment in all cases: MIC / checkerboard with ATM
Format in all cases: cell-based, P. aeruginosa
PA-037, blaIMP/NDM = conditions: for MIC: Pseudomonas aeruginosa, read-out: MIC of ATM with 5, PA-037
PA-014, blaGES = conditions: for MIC: Pseudomonas aeruginosa, read-out: MIC of ATM with 5, PA-014
PA-041, blaNDM = conditions: for MIC: Pseudomonas aeruginosa, read-out: MIC of ATM with 5, PA-041
PA-028, blaNDM = conditions: for MIC: Pseudomonas aeruginosa, read-out: MIC of ATM with 5, PA-028
PA-025, blaNDM = conditions: for MIC: Pseudomonas aeruginosa, read-out: MIC of ATM with 5, PA-025
PA-036, blaNDM = conditions: for MIC: Pseudomonas aeruginosa, read-out: MIC of ATM with 5, PA-036
PA-009, blaGES = conditions: for MIC: Pseudomonas aeruginosa, read-out: MIC of ATM with 5, PA-009

Structure (SMILES): CC(C)(C)CCOc1c(-c2ccc(F)c(F)c2)oc2cc(OCC(=O)O)cc(O)c2c1=O [Compound 5, 2-((2-(3,4-Difluorophenyl)-3-(3,3-dimethylbutoxy)-5-hydroxy-4-oxo-4H-chromen-7-yl)oxy)acetic Acid]
- Activity (FICI class) (PA-037, blaIMP/NDM; PA-037): S (S (Synergy, FICI ≤ 0.5))
- Concentrations of ATM and 5 at lowest FICI (ATM/5) (PA-037, blaIMP/NDM; PA-037): 1/8
- Lowest FICI (ATM/5) (PA-037, blaIMP/NDM; PA-037): 0.27
- Susceptibility to ATM (PA-037, blaIMP/NDM; PA-037, ATM/5): S (S (sensitive, MIC ≤ 8 mg/L))
- FD (fold decrease in MIC of ATM with 5) (PA-037, blaIMP/NDM; PA-037, lowest-FICI combination): 4
- MIC (PA-037, blaIMP/NDM; 5 at 1 mg/L): 2 µg/mL
- MIC (PA-037, blaIMP/NDM; 5 at 2 mg/L): 2 µg/mL
- MIC (PA-037, blaIMP/NDM; 5 at 4 mg/L): 2 µg/mL
- MIC (PA-037, blaIMP/NDM; 5 at 8 mg/L): 1 µg/mL
- MIC (PA-037, blaIMP/NDM; 5 at 16 mg/L): 1 µg/mL
- MIC (PA-037, blaIMP/NDM; 5 at 32 mg/L): 1 µg/mL
- MIC (PA-037, blaIMP/NDM; 5 at 64 mg/L): 1 µg/mL
- Activity (FICI class) (PA-014, blaGES; PA-014): S (S (Synergy, FICI ≤ 0.5))
- Concentrations of ATM and 5 at lowest FICI (ATM/5) (PA-014, blaGES; PA-014): 4/16
- Lowest FICI (ATM/5) (PA-014, blaGES; PA-014): 0.28
- Minimum concentration of 5 to make sensitive to ATM (PA-014, blaGES; PA-014): 4 mg/L
- Susceptibility to ATM (PA-014, blaGES; PA-014, ATM/5): S (S (sensitive, MIC ≤ 8 mg/L))
- FD (fold decrease in MIC of ATM with 5) (PA-014, blaGES; PA-014, lowest-FICI combination): 4
- MIC (PA-014, blaGES; 5 at 1 mg/L): 16 µg/mL
- MIC (PA-014, blaGES; 5 at 2 mg/L): 16 µg/mL
- MIC (PA-014, blaGES; 5 at 4 mg/L): 8 µg/mL
- MIC (PA-014, blaGES; 5 at 8 mg/L): 8 µg/mL
- MIC (PA-014, blaGES; 5 at 16 mg/L): 4 µg/mL
- MIC (PA-014, blaGES; 5 at 32 mg/L): 4 µg/mL
- MIC (PA-014, blaGES; 5 at 64 mg/L): 4 µg/mL
- Activity (FICI class) (PA-041, blaNDM; PA-041): S (S (Synergy, FICI ≤ 0.5))
- Concentrations of ATM and 5 at lowest FICI (ATM/5) (PA-041, blaNDM; PA-041): 1/32
- Lowest FICI (ATM/5) (PA-041, blaNDM; PA-041): 0.31
- Susceptibility to ATM (PA-041, blaNDM; PA-041, ATM/5): S (S (sensitive, MIC ≤ 8 mg/L))
- FD (fold decrease in MIC of ATM with 5) (PA-041, blaNDM; PA-041, lowest-FICI combination): 4
- MIC (PA-041, blaNDM; 5 at 1 mg/L): 4 µg/mL
- MIC (PA-041, blaNDM; 5 at 2 mg/L): 4 µg/mL
- MIC (PA-041, blaNDM; 5 at 4 mg/L): 2 µg/mL
- MIC (PA-041, blaNDM; 5 at 8 mg/L): 2 µg/mL
- MIC (PA-041, blaNDM; 5 at 16 mg/L): 2 µg/mL
- MIC (PA-041, blaNDM; 5 at 32 mg/L): 1 µg/mL
- MIC (PA-041, blaNDM; 5 at 64 mg/L): 1 µg/mL
- Activity (FICI class) (PA-028, blaNDM; PA-028): S (S (Synergy, FICI ≤ 0.5))
- Concentrations of ATM and 5 at lowest FICI (ATM/5) (PA-028, blaNDM; PA-028): 2/2
- Lowest FICI (ATM/5) (PA-028, blaNDM; PA-028): 0.25
- Susceptibility to ATM (PA-028, blaNDM; PA-028, ATM/5): S (S (sensitive, MIC ≤ 8 mg/L))
- FD (fold decrease in MIC of ATM with 5) (PA-028, blaNDM; PA-028, lowest-FICI combination): 4
- MIC (PA-028, blaNDM; 5 at 1 mg/L): 4 µg/mL
- MIC (PA-028, blaNDM; 5 at 2 mg/L): 2 µg/mL
- MIC (PA-028, blaNDM; 5 at 4 mg/L): 2 µg/mL
- MIC (PA-028, blaNDM; 5 at 8 mg/L): 2 µg/mL
- MIC (PA-028, blaNDM; 5 at 16 mg/L): 1 µg/mL
- MIC (PA-028, blaNDM; 5 at 32 mg/L): 1 µg/mL
- MIC (PA-028, blaNDM; 5 at 64 mg/L): 1 µg/mL
- Activity (FICI class) (PA-025, blaNDM; PA-025): S (S (Synergy, FICI ≤ 0.5))
- Concentrations of ATM and 5 at lowest FICI (ATM/5) (PA-025, blaNDM; PA-025): 4/16
- Lowest FICI (ATM/5) (PA-025, blaNDM; PA-025): 0.28
- Minimum concentration of 5 to make sensitive to ATM (PA-025, blaNDM; PA-025): 4 mg/L
- Susceptibility to ATM (PA-025, blaNDM; PA-025, ATM/5): S (S (sensitive, MIC ≤ 8 mg/L))
- FD (fold decrease in MIC of ATM with 5) (PA-025, blaNDM; PA-025, lowest-FICI combination): 4
- MIC (PA-025, blaNDM; 5 at 1 mg/L): 16 µg/mL
- MIC (PA-025, blaNDM; 5 at 2 mg/L): 16 µg/mL
- MIC (PA-025, blaNDM; 5 at 4 mg/L): 8 µg/mL
- MIC (PA-025, blaNDM; 5 at 8 mg/L): 8 µg/mL
- MIC (PA-025, blaNDM; 5 at 16 mg/L): 4 µg/mL
- MIC (PA-025, blaNDM; 5 at 32 mg/L): 2 µg/mL
- MIC (PA-025, blaNDM; 5 at 64 mg/L): 2 µg/mL
- Activity (FICI class) (PA-036, blaNDM; PA-036): S (S (Synergy, FICI ≤ 0.5))
- Concentrations of ATM and 5 at lowest FICI (ATM/5) (PA-036, blaNDM; PA-036): 4/8
- Lowest FICI (ATM/5) (PA-036, blaNDM; PA-036): 0.27
- Minimum concentration of 5 to make sensitive to ATM (PA-036, blaNDM; PA-036): 4 mg/L
- Susceptibility to ATM (PA-036, blaNDM; PA-036, ATM/5): S (S (sensitive, MIC ≤ 8 mg/L))
- FD (fold decrease in MIC of ATM with 5) (PA-036, blaNDM; PA-036, lowest-FICI combination): 4
- MIC (PA-036, blaNDM; 5 at 1 mg/L): 16 µg/mL
- MIC (PA-036, blaNDM; 5 at 2 mg/L): 16 µg/mL
- MIC (PA-036, blaNDM; 5 at 4 mg/L): 8 µg/mL
- MIC (PA-036, blaNDM; 5 at 8 mg/L): 4 µg/mL
- MIC (PA-036, blaNDM; 5 at 16 mg/L): 4 µg/mL
- MIC (PA-036, blaNDM; 5 at 32 mg/L): 4 µg/mL
- MIC (PA-036, blaNDM; 5 at 64 mg/L): 4 µg/mL
- Activity (FICI class) (PA-009, blaGES; PA-009): S (S (Synergy, FICI ≤ 0.5))
- Concentrations of ATM and 5 at lowest FICI (ATM/5) (PA-009, blaGES; PA-009): 8/8
- Lowest FICI (ATM/5) (PA-009, blaGES; PA-009): 0.28
- Minimum concentration of 5 to make sensitive to ATM (PA-009, blaGES; PA-009): 8 mg/L
- Susceptibility to ATM (PA-009, blaGES; PA-009, ATM/5): S (S (sensitive, MIC ≤ 8 mg/L))
- FD (fold decrease in MIC of ATM with 5) (PA-009, blaGES; PA-009, lowest-FICI combination): 4
- MIC (PA-009, blaGES; 5 at 1 mg/L): 32 µg/mL
- MIC (PA-009, blaGES; 5 at 2 mg/L): 16 µg/mL
